{"source": "patent US9963457B2", "about": "“Crystal of 5-((2-(6-amino)-9H-purin-9-yl)ethyl)amino)pentan-1-o1” (FOREVER CHEER INTERNATIONAL LIMITED, priority 2016, dated 2018)", "key": {"[1]": {"system": "mice treated with yeast polysaccharide", "assay": "Visceral pain behavior test in chronic visceral pain model", "assay_type": "in vivo", "settings": "for Number of visceral pain scores: 28 days after yeast polysaccharide treatment", "method": "Chronic Visceral Pain Model\n(§1) The visceral pain is induced by injecting yeast polysaccharide into the mice colony, and the yeast polysaccharide is derived from Saccharomyces cerevisiae (Sigma), wherein one kind of dextran is resident on the cell wall of the yeast and is identified as a protein-carbohydrate complex. Specifically, the mice were anesthetized after inhaling 1-3% isoflurane, and then a […] suspension of yeast polysaccharide (formulated as a 30 mg/ml solution in physiological saline) was injected into the colon of the mice by using a 24 mm long plastic feed needle within 2 minutes. The control group was injected with 0.1 ml physiological saline. The yeast polysaccharide or physiological saline was injected daily for 3 days. A visceral pain behavior test was carried out according to the Laird procedure. The number of times the mice licking the abdomen within 10 minutes was recorded, excluding other grooming behaviors, stretching of whole body, pressing the abdomen against the floor, and an 1-2-second arched posture. On day 1, 7 and 14 after the injection into the colon, an open field test was carried out from 9 am to 12 pm, and the entire test was a double-blind test. Prior to the behavioral test, the mice were acclimated for 30 minutes in an observation room. The mice were placed at the middle of a new open zone (43.2×43.2×30.5 cm^3) with micro light (<50 lux) and a fan. The movement distance, vertical count, movement count, stereotypic behavior count, and jumping count of animals were recorded within 30 minutes by means of an activity monitoring system equipped with multiple pairs of packaged light beam sets.\n(§2) The physiological saline, non-crystalline NB001 (3 mg/kg), the crystal of the present invention (3 mg/kg), and Gabapentin (30 mg/kg) as a positive control were intraperitoneally injected (IP) into the mice treated with yeast polysaccharide respectively. The behaviors of Mice were observed 28 days after the yeast polysaccharide treatment."}, "[2]": {"system": "mice after neuropathic pain", "assay": "Bright/dark box test, neuropathic pain", "assay_type": "in vivo"}, "[3]": {"system": "mice after neuropathic pain", "assay": "Elevated plus maze test (EPM), neuropathic pain", "assay_type": "in vivo", "method": "(§3) An anxious animal model of the prior art—the elevated plus maze test (EPM) was adopted. The mice were acclimated for 30 minutes in the room prior to the behavior observation. The EPM was composed of two open arms (250 lux) and two closed arms (350 lux) arranged opposite to each other. For each test, an individual animal was placed at the center of the test position and allowed to move freely. The test is carried out for 5 minutes. The number of entering the test position for each arm and the time spent therefore were recorded.\nThe other two sets of tests were conducted to test the effect of the crystal of the present invention on inhibiting anxiety caused by chronic pain and neuropathic pain.\nas §2, with “The EPM test tested the anxiety behavior of mice after the test treatment. The physiological” for “The physiological”"}, "[4]": {"system": "mice treated with yeast polysaccharide", "assay": "Bright/dark box test, visceral pain", "assay_type": "in vivo", "settings": "for % time in the open arm: Bright/dark box test, Visceral pain", "method": "as §1\nBright/dark box test: The test procedure was carried out by using an improved method in accordance with the prior art. The device was composed of a rectangular organic glass box (44×8.5×25 cm^3), which is separated into bright and dark compartments with the equal size by using a door. A 60 watt lamp (400 lux) in turn-on state was placed at 30 cm above the box to irradiate the bright compartment. Each animal was first placed in the dark compartment for 20 seconds, and then the door leading to the bright compartment was open. The time each animal stayed in the dark compartment and the time each animal enters the bright compartment within 10 minutes were recorded.\nas §2, with “In order to confirm the effect of the crystal of the present invention on inhibiting anxiety, mice were subjected to a bright/dark box test, and the results were as shown in Table 8. The physiological” for “The physiological”"}, "[5]": {"system": "mice treated with yeast polysaccharide", "assay": "Elevated plus maze test (EPM), visceral pain", "assay_type": "in vivo", "settings": "for % time in the open arm: Visceral pain", "method": "as §1, §3\nas §2, with “The EPM test tested the anxiety behavior of mice after the test treatment. The physiological” for “The physiological”"}, "[6]": {"system": "bone cancer pain model in rat (Walker 256 cells)", "assay": "Paw withdrawal thermal latency (PWL) in bone cancer pain model", "assay_type": "in vivo, SD rats", "settings": "twice daily for 3 days, PWL at 2 h after last administration (21d)", "method": "1. Animals 50 SD rats (180-220 g), placed under a quiet and warm (22° C.) environment without strong light irradiation, having free access to feed and water.\n2. Cell Culture: SD Rat homologous cancer cell strains Walker 256 preserved by the Laboratory Animal Center, Forth Military Medical\nUniversity, or a commercially available product can be used. RPMI 1640 culture medium (Gibco Inc. of US, containing 100 U/ml each of 10% fetal bovine serum, penicillin, and streptomycin) was used, and the tumor cells were incubated as suspension cells in a 37° C. incubator under 5% CO2, with the medium replaced every other day, and 2 days for 1 passage. The cells were harvested at the 3rd passage, with a cell concentration of 2×10^5/10 μl.\n3. Establishment of bone cancer pain model in rat: the rats were operated at the left knee with a small incision after anesthesia (40 mg/kg of pentobarbital sodium) according to sterile surgical operation procedures, the muscle was stripped off gently and the patellar ligament is cut open to expose the distal femur, with 1 mm syringe needle inserted from the intercondylar fossa vertically into the marrow cavity, with an inserting distance no more than 5 mm to prevent punching. Then a 20 μl micro-injector was inserted into the marrow cavity to slowly inject 10 μl of a suspension containing the Walker 256 cells (2×10^5 cancer cells per 10 μl). The injector was stayed there for a few minutes after the injection, and then the needle pinhole was immediately sealed with sterile bone wax. The tumor cells leaking out of the marrow cavity were killed with 75% ethyl alcohol, and then the rat was sutured under sterile conditions layer by layer. The same operation was performed in the sham operation group, except that only the same volume of sterile saline was injected into the marrow cavity slowly.\n6. Drug intervention: On day 18 after the surgical operation, the SD rats of the operation group were randomized into 6 groups, i.e., respectively the model group; non-crystalline NB001 group (20 mg/kg, i.g.); the group of the crystal of the present invention (20 mg/kg, i.g.); morphine (2 mg/kg, i.p.); and gabapentin (100 mg/kg, i.g.). The new crystal form and non-crystalline form of the AC1 inhibitor NB001 were both formulated with sterile saline, and morphine and gabapentin were used as positive control drugs. All drugs were administered twice daily for 3 days, and the pain threshold was measured within 2 hours after the last administration on day 3\n7. Assessment of rat pain behavior:\nPaw withdrawal thermal latency (PWL): the PWL was measured by using a PL-200 thermal pain stimulator (8V, 50 W, with a strength of 100%). The time period since the time irradiating the middle portion of the planta pedis at the operation side of the rat with light till the time the rat lifted its leg to keep out of the light was TWL. To prevent tissue injury, a cut-off time of 80 s was set, each rat was measured for 3 times with an interval of 5 min, and the results were averaged."}, "[7]": {"assay": "Approximate solubility of BPCs in organic solvent and mixed solvent", "assay_type": "physicochemical", "settings": "organic solvent or mixture, thermodynamic from solid", "method": "Into 7 mL vials were weighed 2.0 mg of the raw material respectively. Then appropriate amount of methanol, ethanol, isopropyl alcohol, n-butanol, acetonitrile, acetone, ethyl acetate, 2-methyl tetrahydrofuran, tetrahydrofuran, dioxane, n-pentyl alcohol, toluene, isopropyl alcohol+water (with a mass ratio of 3:1), acetonitrile+water (with a mass ratio of 3:1), acetone+water (with a mass ratio of 3:1), and ethanol+water (with a mass ratio of 3:1) were added into respective vials, and the mixture was shaken rapidly to dissolve the compound of the mixture until the solution becomes clear. The approximate solubility of the resultant bulk pharmaceutical chemicals (BPC) in an organic solvent and a mixed solvent was shown in Table 1 below."}, "adenylate cyclase 1": {"molecular_target": "adenylate cyclase 1 (Homo sapiens, UniProt Q08828)", "sequence (Q08828 whole entry)": "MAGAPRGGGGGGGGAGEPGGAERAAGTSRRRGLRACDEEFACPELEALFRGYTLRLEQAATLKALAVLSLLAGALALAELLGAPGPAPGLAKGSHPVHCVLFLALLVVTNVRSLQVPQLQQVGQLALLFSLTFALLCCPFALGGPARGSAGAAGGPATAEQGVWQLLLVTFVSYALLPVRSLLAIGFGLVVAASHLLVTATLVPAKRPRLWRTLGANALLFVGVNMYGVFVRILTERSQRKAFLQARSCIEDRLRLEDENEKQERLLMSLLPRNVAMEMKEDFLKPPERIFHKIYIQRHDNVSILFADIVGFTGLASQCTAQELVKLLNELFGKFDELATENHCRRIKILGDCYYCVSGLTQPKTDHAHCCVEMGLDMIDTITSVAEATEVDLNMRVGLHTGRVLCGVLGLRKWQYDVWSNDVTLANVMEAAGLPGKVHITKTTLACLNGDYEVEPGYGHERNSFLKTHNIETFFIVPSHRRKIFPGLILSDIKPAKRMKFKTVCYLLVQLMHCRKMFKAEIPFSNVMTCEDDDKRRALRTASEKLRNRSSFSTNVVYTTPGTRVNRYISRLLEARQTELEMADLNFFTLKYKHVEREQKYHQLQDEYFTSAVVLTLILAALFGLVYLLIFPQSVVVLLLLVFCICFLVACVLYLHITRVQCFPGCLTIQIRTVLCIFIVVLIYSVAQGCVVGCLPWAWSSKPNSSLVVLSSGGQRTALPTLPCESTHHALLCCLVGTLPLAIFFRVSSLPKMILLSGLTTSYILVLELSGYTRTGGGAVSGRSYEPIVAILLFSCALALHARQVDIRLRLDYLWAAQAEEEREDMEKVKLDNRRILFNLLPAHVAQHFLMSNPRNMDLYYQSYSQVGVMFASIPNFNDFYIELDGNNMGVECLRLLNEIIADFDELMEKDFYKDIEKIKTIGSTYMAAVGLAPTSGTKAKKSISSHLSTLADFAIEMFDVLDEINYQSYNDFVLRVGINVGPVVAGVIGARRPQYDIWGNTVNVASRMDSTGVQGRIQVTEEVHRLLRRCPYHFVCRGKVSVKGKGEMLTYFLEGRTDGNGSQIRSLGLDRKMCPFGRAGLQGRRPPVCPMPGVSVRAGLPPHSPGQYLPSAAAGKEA", "settings": "described in WO2007/041863; cited from earlier work"}}, "data": [{"smiles": "NCC1(CC(=O)O)CCCCC1", "note": "[Gabapentin, gabapentin, reference compound]", "values": [{"measurement": "Number of visceral pain scores", "setting": "[1]; 30 mg/kg IP", "result": "20.7 ± 1.9"}, {"measurement": "% time in the open arm", "setting": "[2]; 30 mg/kg IP", "result": "9.6 ± 1.5 (7) %"}, {"measurement": "% time in the open arm", "setting": "[3]; 30 mg/kg IP", "result": "9.6 ± 1.5 (7) %"}, {"measurement": "% time in the open arm", "setting": "[4]; 30 mg/kg IP", "result": "8.6 ± 1.5 (8) %"}, {"measurement": "% time in the open arm", "setting": "[5]; 30 mg/kg IP", "result": "8.6 ± 1.5 (8) %"}, {"measurement": "analgesic effect (PWL) as compared with the model group", "setting": "[6]; 100 mg/kg, i.g.", "result": "better analgesic effect"}]}, {"smiles": "CN1CC[C@]23c4c5ccc(O)c4O[C@H]2[C@@H](O)C=C[C@H]3[C@H]1C5", "note": "[morphine, reference compound]", "values": [{"measurement": "analgesic effect (PWL) as compared with the model group", "setting": "[6]; 2 mg/kg, i.p.", "result": "better analgesic effect"}]}, {"smiles": "Nc1ncnc2c1ncn2CCNCCCCCO", "note": "[Old NB001, 5-(((2-(6-amino)-9H-purin-9-yl)ethyl)amino)pentan-1-ol]", "values": [{"measurement": "Number of visceral pain scores", "setting": "[1]; 3 mg/kg IP", "result": "19.6 ± 1.2"}, {"measurement": "therapeutic effect on chronic pain as compared with the positive control group", "setting": "[1]; 3 mg/kg IP, Table 6, listed as non-crystalline NB001", "result": "significant therapeutic effects"}, {"measurement": "therapeutic effect in bright/dark box test as compared with the positive control group", "setting": "[4]; 3 mg/kg IP, Table 8, listed as non-crystalline NB001", "result": "significant therapeutic effects"}, {"measurement": "therapeutic effect in EPM test as compared with the positive control group", "setting": "[5]; 3 mg/kg IP, Table 7, listed as non-crystalline NB001", "result": "significant therapeutic effects"}, {"measurement": "analgesic effect (PWL) as compared with the model group", "setting": "[6]; 20 mg/kg, i.g.", "result": "better analgesic effect"}]}, {"smiles": "Nc1ncnc2c1ncn2CCNCCCCCO", "note": "[NB001, 5-(((2-(6-amino)-9H-purin-9-yl)ethyl)amino)pentan-1-ol]", "values": [{"measurement": "solubility", "setting": "[7]; 2-methyl tetrahydrofuran", "result": "< 2000", "unit": "µg/mL"}, {"measurement": "solubility", "setting": "[7]; acetone", "result": "< 2000", "unit": "µg/mL"}, {"measurement": "solubility", "setting": "[7]; acetone/water (mass ratio 3:1)", "result": "100000 to 200000", "unit": "µg/mL"}, {"measurement": "solubility", "setting": "[7]; acetonitrile", "result": "< 2000", "unit": "µg/mL"}, {"measurement": "solubility", "setting": "[7]; acetonitrile/water (mass ratio 3:1)", "result": "100000 to 200000", "unit": "µg/mL"}, {"measurement": "solubility", "setting": "[7]; dioxane", "result": "< 2000", "unit": "µg/mL"}, {"measurement": "solubility", "setting": "[7]; ethanol", "result": "7000 to 10000", "unit": "µg/mL"}, {"measurement": "solubility", "setting": "[7]; ethanol/water (mass ratio 3:1)", "result": "100000 to 200000", "unit": "µg/mL"}, {"measurement": "solubility", "setting": "[7]; ethyl acetate", "result": "< 2000", "unit": "µg/mL"}, {"measurement": "solubility", "setting": "[7]; isopropyl alcohol", "result": "~2000", "unit": "µg/mL"}, {"measurement": "solubility", "setting": "[7]; isopropyl alcohol/water (mass ratio 3:1)", "result": "70000 to 100000", "unit": "µg/mL"}, {"measurement": "solubility", "setting": "[7]; methanol", "result": "50000 to 66000", "unit": "µg/mL"}, {"measurement": "solubility", "setting": "[7]; n-butanol", "result": "2200 to 2500", "unit": "µg/mL"}, {"measurement": "solubility", "setting": "[7]; n-pentyl alcohol", "result": "3000 to 4000", "unit": "µg/mL"}, {"measurement": "solubility", "setting": "[7]; tetrahydrofuran", "result": "< 2000", "unit": "µg/mL"}, {"measurement": "solubility", "setting": "[7]; toluene", "result": "< 2000", "unit": "µg/mL"}, {"measurement": "inhibition of adenylate cyclase 1", "setting": "adenylate cyclase 1", "result": "capable of selectively inhibiting adenylate cyclase 1"}, {"measurement": "% time in the open arm", "setting": "[2]; 3 mg/kg IP, 3 mg/kg", "result": "10.1 ± 1.8 (8) %"}, {"measurement": "% time in the open arm", "setting": "[3]; 3 mg/kg IP, 3 mg/kg", "result": "10.1 ± 1.8 (8) %"}, {"measurement": "% time in the open arm", "setting": "[4]; 3 mg/kg IP, 3 mg/kg", "result": "5.2 ± 0.7 (8) %"}, {"measurement": "% time in the open arm", "setting": "[5]; 3 mg/kg IP, 3 mg/kg", "result": "5.2 ± 0.7 (8) %"}]}]}
